After the bases stand the sugars from the 5' end (letter, count) and the backbone: PS all phosphorothioate, else s phosphorothioate and o phosphodiester by linkage. Methylation of C is not given here. e = 2'-O-(2-methoxyethyl) (MOE); k = constrained ethyl (cEt); d = 2'-deoxy (DNA); m = 2'-O-methyl
These sequences were tested against HSD17B13. Conditions: ASO, HepaRG, 0.02 µM.

Row | Sequence | target mRNA inhibition
1 | TTATAACTACAAGAGG (sugars k3 d10 k3, PS) | 1%
2 | TTATGTAATAGCCAGT (sugars k3 d10 k3, PS) | 16%
3 | TTTGTTAGAGTGCTTA (sugars k3 d10 k3, PS) | 12%

Same assay, conditions: ASO, HepaRG, 0.078 µM

Row | Sequence | target mRNA inhibition
4 | TTATAACTACAAGAGG (sugars k3 d10 k3, PS) | 25%
5 | TTATGTAATAGCCAGT (sugars k3 d10 k3, PS) | 21%
6 | TTTGTTAGAGTGCTTA (sugars k3 d10 k3, PS) | 30%

Same assay, conditions: ASO, HepaRG, 0.313 µM

Row | Sequence | target mRNA inhibition
7 | TTATAACTACAAGAGG (sugars k3 d10 k3, PS) | 26%
8 | TTATGTAATAGCCAGT (sugars k3 d10 k3, PS) | 59%
9 | TTTGTTAGAGTGCTTA (sugars k3 d10 k3, PS) | 56%

Same assay, conditions: ASO, HepaRG, 1 µM

Row | Sequence | target mRNA inhibition
10 | TTAGTTGGTAGCTTGC (sugars k3 d10 k3, PS) | 72%
11 | TTAGUATAGTTATCTT (sugars k3 d1 m1 d8 k3, PS) | 22%
12 | TTAGUCTTGATGTAGT (sugars k3 d1 m1 d8 k3, PS) | 50%
13 | TTATAACTACAAGAGG (sugars k3 d10 k3, PS) | 68%
14 | TTATACTGAAGGCTGT (sugars k3 d10 k3, PS) | 23%
15 | TTATGTAATAGCCAGT (sugars k3 d10 k3, PS) | 77%
16 | TTATGTGATTGAGTTC (sugars k3 d9 k3 e1, PS) | 30%
17 | TTATTATGTGATTGAG (sugars k3 d10 k3, PS) | 23%
18 | TTATTGGTATGGTAAG (sugars k3 d10 k3, PS) | 14%
19 | TTCACCTGATTTAGAG (sugars k3 d10 k3, PS) | 9%
20 | TTCAGAGTTATACAGA (sugars k3 d10 k3, PS) | 66%
21 | TTCCATAAAGCTGGAT (sugars k3 d10 k3, PS) | 5%
22 | TTCCGAAAAAAGTGGA (sugars k3 d10 k3, PS) | 13%
23 | TTCCGGTAAGAATTTC (sugars k3 d10 k3, PS) | 33%
24 | TTCGAATCATTAAGCT (sugars k3 d10 k3, PS) | 63%
25 | TTCTAAATTACTCCGT (sugars k3 d10 k3, PS) | 53%
26 | TTCTACACCACACTAA (sugars k3 d10 k3, PS) | 12%
27 | TTCTAGGATGATGTTC (sugars k3 d10 k3, PS) | 72%
28 | TTCTATCAACCTGCAC (sugars k3 d10 k3, PS) | 62%
29 | TTCTATTGTATGAGGT (sugars k3 d10 k3, PS) | 0%
30 | TTCTCTTGACAATGGT (sugars k3 d10 k3, PS) | 67%
31 | TTCTTGCAGAAATTCA (sugars k3 d10 k3, PS) | 42%
32 | TTGAACAGTCTTAAAC (sugars k3 d9 k3 e1, PS) | 35%
33 | TTGAAGACAATACAGG (sugars k3 d10 k3, PS) | 63%
34 | TTGAATAGCAAGCCAA (sugars k3 d10 k3, PS) | 31%
35 | TTGACTGCTGCTAGTG (sugars kkdddddddddkekek, PS) | 29%

Row | Sequence | target mRNA inhibition
36 | TTGATAAAATAGGGTG (sugars k3 d10 k3, PS) | 46%
37 | TTGCACCGTTTTGGGC (sugars k3 d1 m1 d8 k3, PS) | 50%
38 | TTGCACCGTTTTGGGC (sugars kkdddddddddkekek, PS) | 26%
39 | TTGCAGTTATTAGAAG (sugars k3 d1 m1 d8 k3, PS) | 17%
40 | TTGCATAAGAGCCAAA (sugars k3 d10 k3, PS) | 46%
41 | TTGGAATGCTACTTGA (sugars k3 d1 m1 d8 k3, PS) | 65%
42 | TTGGCCGAGGAGGGCG (sugars k3 d10 k3, PS) | 3%
43 | TTGGGACCAATATAAT (sugars k3 d10 k3, PS) | 18%
44 | TTGGGTCCATTGTTTC (sugars k3 d10 k3, PS) | 44%
45 | TTGGTATGGTAAGCCC (sugars k3 d10 k3, PS) | 62%
46 | TTGGUAAGTATTCCAT (sugars k3 d1 m1 d8 k3, PS) | 13%
47 | TTGTTAGAGTGCTTAG (sugars k3 d10 k3, PS) | 76%
48 | TTGTTGATATTCTGTG (sugars k3 d10 k3, PS) | 52%
49 | TTTAAGAGGCATGAAA (sugars k3 d10 k3, PS) | 40%
50 | TTTAGGGAGGTAGCTT (sugars k3 d10 k3, PS) | 24%
51 | TTTATAGACTGGGTAG (sugars k3 d10 k3, PS) | 59%
52 | TTTATTATGAGGATCT (sugars k3 d10 k3, PS) | 43%
53 | TTTATTGGTATGGTAA (sugars k3 d10 k3, PS) | 25%
54 | TTTCACCTCAGGTGAC (sugars k3 d10 k3, PS) | 52%
55 | TTTCATGGCCTTACCA (sugars k3 d10 k3, PS) | 52%
56 | TTTCCTCCACACCGCG (sugars k3 d10 k3, PS) | 18%
57 | TTTCGAATCATTAAGC (sugars k3 d10 k3, PS) | 30%
58 | TTTCGGCACTCAGCTG (sugars k3 d10 k3, PS) | 29%
59 | TTTCTAAATTACTCCG (sugars k3 d10 k3, PS) | 54%
60 | TTTGAGAGAACTTATA (sugars k3 d10 k3, PS) | 0%

From the OligoGym collection
